From patent US20040034219A1, “Benzothiophene derivative compounds process of preparation and use thereof” (priority 2000, published 2004) come the findings set out here.

Molecules are shown by their SMILES. Where a name gives a salt, the structure may show the parent alone.

One series concerns the target T1, serotonin transporter (Rattus norvegicus, UniProt P31652).
T1 construct: a fraction of semi-purified membranes of the cerebral cortex of rat; from tissue; host or cells: rat cerebral cortex membranes
Description: Tests of fixing to the serotonin transporter (5-HT), 3H-paroxetine displacement. Type of series: binding. As to conditions: membranes of rat cerebral cortex, 3H-paroxetine 0.1 nM, 60 minutes at 22° C. On the procedure:
Tests of Fixing to the Serotonin Transporter (5-HT)
The biological material used was a fraction of semi-purified membranes of the cerebral cortex of rat, obtained using the method described above.
The membrane fraction was resuspended in Tris-HCl 50 mM, pH 7.4 at 40° C., which contained NaCl 120 mM and KCl 5 mM, and was incubated with ^3H-paroxetine 0.1 nM and different concentrations of fluoxetine as displacing agent. At the end of the period of incubation of 60 minutes at 22° C. the membrane fraction was separated by rapid filtration and the radioactivity of the combined fraction quantified by means of liquid scintillation.
(§1) The results are expressed as the Ki of the serotonin transporter and the Ki of the 5-HT1A receptor.

A further series has as its target T2, 5-HT1A receptors (Rattus norvegicus, UniProt P19327).
T2 construct: fraction of membranes isolated from the cerebral cortex of rats; from tissue; host or cells: rat cerebral (frontal) cortex membranes
T2 sequence (P19327 1-422): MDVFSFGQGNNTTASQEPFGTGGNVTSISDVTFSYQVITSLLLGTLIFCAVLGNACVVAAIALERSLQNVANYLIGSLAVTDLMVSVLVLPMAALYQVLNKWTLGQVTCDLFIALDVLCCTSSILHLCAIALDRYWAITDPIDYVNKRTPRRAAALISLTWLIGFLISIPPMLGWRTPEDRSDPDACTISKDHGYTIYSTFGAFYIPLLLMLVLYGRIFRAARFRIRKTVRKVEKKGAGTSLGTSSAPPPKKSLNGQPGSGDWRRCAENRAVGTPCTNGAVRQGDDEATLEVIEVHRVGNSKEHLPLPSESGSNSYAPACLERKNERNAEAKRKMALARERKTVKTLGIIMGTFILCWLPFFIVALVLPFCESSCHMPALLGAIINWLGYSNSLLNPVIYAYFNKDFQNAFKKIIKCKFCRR
The series is described as follows: Tests for fixing to serotonin 5HT1A receptors, 3H-DPAT displacement. In kind it is binding. As to conditions: membranes of rat cerebral cortex, 3H-DPAT 1 nM, 15 minutes at 37° C. On the procedure:
Tests for Fixing to Serotonin 5HT1A Receptors
The technique described by Hoyer and collaborators (Eur. J. Pharmacol. 118:13-23.1985) was used to determine the affinity of the products for the 5-HT1A receptors. The studies were carried out with the fraction of membranes isolated from the cerebral cortex of rats. The agonist ^3H-Dipropylaminotetraline (DPAT) was used as specific ligand, while non-radioactive DPAT was used as displacing ligand.
In order to isolate the fraction of membranes, the frontal cortex of the rat was dissected and homogenised in Tris-HCl 50 mM, pH 7.7 at 4° C. The resulting homogenate was centrifuged at 25000 rpm for 15 minutes at 4° C. and the sediment resuspended in Tris-HCl containing CaCl2 4 mM. For the fixing test the suspension of membranes was incubated with ^3H-DPAT (1 nM) and different concentrations of the cold displacing agent. Once the incubation period of 15 minutes at 37° C. had elapsed, the membrane fraction was separated by means of rapid filtration and the radioactivity of the combined fraction quantified by means of liquid scintillation.
as §1

T1 sequence (P31652 whole entry): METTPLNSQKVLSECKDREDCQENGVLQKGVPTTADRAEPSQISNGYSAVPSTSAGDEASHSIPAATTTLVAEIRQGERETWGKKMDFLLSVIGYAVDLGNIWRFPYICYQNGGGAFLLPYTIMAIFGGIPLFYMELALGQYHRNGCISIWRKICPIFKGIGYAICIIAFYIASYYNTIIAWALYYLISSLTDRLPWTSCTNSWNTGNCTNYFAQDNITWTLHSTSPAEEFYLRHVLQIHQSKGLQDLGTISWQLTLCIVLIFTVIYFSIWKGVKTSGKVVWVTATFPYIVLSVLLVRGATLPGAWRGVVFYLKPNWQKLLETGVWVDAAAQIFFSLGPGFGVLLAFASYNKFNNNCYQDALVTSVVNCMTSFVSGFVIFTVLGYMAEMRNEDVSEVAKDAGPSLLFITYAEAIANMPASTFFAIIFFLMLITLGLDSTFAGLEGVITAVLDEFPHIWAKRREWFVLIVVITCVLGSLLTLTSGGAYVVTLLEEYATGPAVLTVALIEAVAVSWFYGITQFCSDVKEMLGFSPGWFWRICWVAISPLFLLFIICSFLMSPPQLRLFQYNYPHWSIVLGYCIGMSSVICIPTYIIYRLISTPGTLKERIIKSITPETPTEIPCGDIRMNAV

Regarding `Cc1ccc2cccc(N3CCN(CCC(O)c4csc5ccccc45)CC3)c2n1` (stereo not drawn) [Example 36, 1-(benzo[b]thiophen-3-yl)-3-[4-(quinaldin-8-yl)piperazin-1-yl]propan-1-ol hydrochloride], the figures for the Ki at serotonin transporter and on 5-HT1A receptors were 9.9 nM and 10.2 nM, respectively.

For `Cl.OC(CCN1CCN(c2cccc3cccnc23)CC1)c1csc2ccccc12` (stereo not drawn) [Example 33, 1-(benzo[b]thiophen-3-yl)-3-[4-(quinol-8-yl)piperazin-1-yl]propan-1-ol hydrochloride], the melting point was 169 to 170 °C. For the same molecule, the affinity on serotonin transporter, expressed as Ki, was 8.6 nM. The molecule also yielded an inhibition constant (Ki) on 5-HT1A receptors of 1.5 nM.

For `Cl.OC(CCN1CCN(c2cccc3[nH]ccc23)CC1)c1csc2ccccc12` (stereo not drawn) [Example 35, 1-(benzo[b]thiophen-3-yl)-3-[4-(indol-4-yl)piperazin-1-yl]propan-1-ol hydrochloride], the melting point is over 300 °C. Besides, affinity at serotonin transporter was put at a Ki of 4.1 nM. Affinity at 5-HT1A receptors was put at a Ki of 5.5 nM.

Take `O=C(CCN1CCN(c2cccc3c2OCCO3)CC1)c1csc2ccc([N+](=O)[O-])cc12` [Example 21, 1-(5-nitrobenzo[b]thiophen-3-yl)-3-[4-(2,3-dihydro-1,4-benzodioxyn-5-yl)piperazin-1-yl]propan-1-one]: the Ki was 15.9 nM at serotonin transporter and 3.2 nM at 5-HT1A receptors.

For `Cc1ccc2cccc(N3CCN(CCC(O)c4csc5ccc(F)cc45)CC3)c2n1` (stereo not drawn) [Example 30, 1-(5-fluorobenzo[b]thiophen-3-yl)-3-[4-(quinaldin-8-yl)piperazin-1-yl]propan-1-ol], the Ki is 8.5 nM at serotonin transporter and 2.5 nM on 5-HT1A receptors.

Take `OC(CCN1CCN(c2ccnc3ccccc23)CC1)c1csc2ccccc12` (stereo not drawn) [Example 45, 1-(benzo[b]thiophen-3-yl)-3-[4-(quinol-4-yl)piperazin-1-yl]propan-1-ol hydrochloride]: the Ki at serotonin transporter was found to be 19.4 nM; on 5-HT1A receptors, 301 nM.

`Oc1ccc2scc(C(O)CCN3CCN(c4cccc5c4OCCO5)CC3)c2c1` (stereo not drawn) [Example 50, 1-(5-hydroxybenzo[b]thiophen-3-yl)-3-[4-(2,3-dihydro-1,4-benzodioxyn-5-yl)piperazin-1-yl]propan-1-ol]: the Ki was found to be 6.2 nM at serotonin transporter and 18.2 nM on 5-HT1A receptors.

Consider `O=[N+]([O-])c1ccc2scc(C(O)CCN3CCN(c4cccc5c4OCCO5)CC3)c2c1` (stereo not drawn) [Example 39, 1-(5-nitrobenzo[b]thiophen-3-yl)-3-[14-(2,3-dihydro-1,4-benzodioxyn-5-yl)piperazin-1-yl]propan-1-ol], for which the figures for the Ki at serotonin transporter and on 5-HT1A receptors were 6.9 nM and 14 nM, respectively.

In turn, `Cl.Cl.O=C(CCN1CCN(c2cccc3cccnc23)CC1)c1csc2ccccc12` showed a melting point of 150 to 152 °C.

Turning to `OC(CCN1CCN(c2cccc3ncccc23)CC1)c1csc2ccccc12` (stereo not drawn) [Example 37, 1-(benzo[b]thiophen-3-yl)-3-[4-(quinol-5-yl)piperazin-1-yl]propan-1-ol], the melting point was in the range of 127 to 129 °C. Moreover, affinity at serotonin transporter was put at a Ki of 12.7 nM. The same molecule came in with a Ki on 5-HT1A receptors of 26.1 nM.

Consider `O=C(CCN1CCN(c2ccc3ccccc3n2)CC1)c1csc2ccccc12` [Example 14, 1-(benzo[b]thiophen-3-yl)-3-[4-(quinol-2-yl)piperazin-1-yl]propan-1-one], for which the melting point fell in the range of 92 to 96 °C.

As for `O=C(CCN1CCN(c2cnc3ccccc3c2)CC1)c1csc2ccccc12` [Example 16, 1-(benzo [b]thiophen-3-yl) -3-[4-(quinol-3-yl)piperazin-1-yl]propan-1-one], the melting point lay within 112 to 114 °C.

`OC(CCN1CCN(c2cccc3cccnc23)CC1)c1csc2ccc(F)cc12` (stereo not drawn) [Example 27, 1-(5-fluorobenzo[b]thiophen-3-yl)-3-[4-(quinol-8-yl)piperazin-1-yl]propan-1-ol] returned a melting point of 89 to 91 °C. At serotonin transporter, this molecule came in with a Ki of 7.5 nM. Besides, the Ki on 5-HT1A receptors was determined as 2.7 nM.

`O=C(CCN1CCN(c2cccc3[nH]ccc23)CC1)c1csc2ccccc12` [Example 10, 1-(benzo[b]thiophen-3-yl)-3-[4-(indol-4-yl)piperazin-1-yl]propan-1-one] yielded a melting point of 83 to 85 °C.

With `OC(CCN1CCN(c2ccc3ncccc3c2)CC1)c1csc2ccccc12` (stereo not drawn) [Example 47, 1-(benzo[b]thiophen-3-yl)-3-[4-(quinol-6-yl)piperazin-1-yl]propan-1-ol], the Ki at serotonin transporter was determined as 2.2 nM; on 5-HT1A receptors, 546 nM.

As for `OC(CCN1CCN(c2cccc3[nH]ccc23)CC1)c1csc2ccc(F)cc12` (stereo not drawn) [Example 29, 1-(5-fluorobenzo[b]thiophen-3-yl)-3-[4-(indol-4-yl)piperazina-1-yl]propan-1-ol], the melting point was 170 to 173 °C. The same molecule showed a Ki on serotonin transporter of 7.3 nM. Besides, the Ki at 5-HT1A receptors turned out to be 5.9 nM.

`OC(CCN1CCN(c2cccc3c2OCCO3)CC1)c1csc2ccc(F)cc12` (stereo not drawn) [Example 28, 1-(5-fluorobenzo[b]thiophen-3-yl)-3-[4-(2,3-dihydro-1,4-benzodioxyn-5-yl)piperazin-1-yl]propan-1-ol] had a melting point of 147 to 150 °C. Besides, on serotonin transporter, the Ki was 14.9 nM. The same molecule displayed a Ki on 5-HT1A receptors of 6 nM.

Take `O=C(CCN1CCN(c2ccnc3ccccc23)CC1)c1csc2ccccc12` [Example 15, 1-(benzo[b]thiophen-3-yl) -3-[4-(quinol-4-yl)piperazin-1-yl]propan-1-one]: the melting point was 134 to 136 °C.

Turning to `OC(CCN1CCN(c2ccc3ccccc3n2)CC1)c1csc2ccccc12` (stereo not drawn) [Example 44, 1-(benzo [b]thiophen-3-yl) -3-[4-(quinol-2-yl)piperazin-1-yl]propan-1-ol], the Ki at serotonin transporter is 6.4 nM; on 5-HT1A receptors, 377 nM.
